US20210137941A1 (ZARODEX THERAPEUTICS LIMITED, priority 2018, published 2021)
Where “and” joins values, the source holds several entries; their conditions need not be identical. Equal entries are not always repeated. Entries after “also recorded” stand apart in the source; their conditions may differ. Where two headings read alike, the source gives them in different places.

Legend:
[1] = test system: Immunoglobulin levels (IgG, IgA and IgM); experiment: First observational study: serum immunoglobulin levels by nephelometry, clozapine vs clozapine-naive patients; assay type: in vivo, human
[2] = test system: circulating total IgG, IgA, IgM and pneumococcus IgG; experiment: Second observational study (interim analysis): circulating immunoglobulins; assay type: in vivo, human; details: interim data
[3] = test system: circulating B cell subsets; experiment: Second observational study (interim analysis): peripheral blood B cell subsets by FACS; assay type: in vivo, human; details: interim data
[4] = test system: collagen-induced arthritis (CIA); experiment: Mouse collagen-induced arthritis (CIA) model: onset, incidence, clinical score, paw swelling; assay type: in vivo, DBA/1 mice
Protocol: Adult (age 13-15 weeks) DBA/1 male mice were purchased from Envigo (Horst, Netherlands). Mice were housed at a 21° C.±2° C. in individually ventilated cages with free access to food and water and a 12-h light/dark cycle (7 am/7 pm). Mice were acclimatised for 1 week on arrival prior to initiating experiments.
(§1) All experiments were approved by the Clinical Medicine Animal Welfare and Ethical Review Body (AWERB) and by the UK Home Office.
DBA/1 mice were immunised with bovine type II collagen in CFA and monitored daily for onset of arthritis. […] Controls received vehicle (saline) alone. Treatment of mice commenced in one experiment on day 1 after immunisation and in a second experiment on day 15 after immunisation. Clinical scores and paw-swelling were monitored for 10 days following onset of arthritis. A clinical scoring system was used as follows. Arthritis severity was scored by an experienced, non-blinded investigator as follows: 0=normal, 1=slight swelling and/or erythema, 2=pronounced swelling, 3=ankylosis. All four limbs were scored, giving a maximum possible score of 12 per animal.
(§2) Data were analyzed by one-way ANOVA with Tukey's or Dunnett's multiple comparison test or two-way ANOVA with Tukey's multiple comparison test as appropriate. All calculations were made using GraphPad Prism software. A P value less than 0.05 was considered significant.

[5] = test system: B220+ B cells, plasma cells, germinal centre B cells; experiment: CIA model: B cell subsets in spleen and lymph nodes by FACS; assay type: in vivo, DBA/1 mice
Protocol: as §1
(§3) At the end of the experimental period, mice were humanely euthanised and bled by cardiac puncture to obtain blood samples for serum separation, storage at −80° C. and subsequent measurement of specific anti-collagen immunoglobulin (IgG1 and IgG2a isotypes) by ELISA. In parallel, spleen and inguinal lymph nodes were harvested for evaluation of cellular composition across these compartments using multi-laser flow cytometric detection and analysis. Numbers of B cell subsets in spleen and lymph nodes were determined by FACS.
as §2

[6] = test system: anti-collagen IgG1 and IgG2a; experiment: CIA model: serum anti-collagen immunoglobulin by ELISA; assay type: in vivo, DBA/1 mice; details: FIG. 33
Protocol: as §1, §3, §2

[7] = test system: T follicular helper cells (CD4+ PD1+ CXCR5+); experiment: CIA model: T follicular helper cells in spleen and lymph node by FACS; assay type: in vivo, DBA/1 mice
Protocol: as §1, §3, §2

[8] = test system: B cell subsets (class switched memory B cells, plasmablasts); details: for CSMB after stopping clozapine: one patient, 24 months after clozapine cessation (from 1.58%)
[9] = test system: serum/plasma IgG, IgA, IgM; details: cited from earlier work
[10] = in vivo; cited from earlier work
[11] = sub-group A: all diagnoses, all smoking, possible secondary causes not excluded, n=123
[12] = sub-group A: all diagnoses, all smoking, possible secondary causes not excluded, n=123, listed as clozapine
[13] = sub-group B: all diagnoses, all smoking, possible secondary causes excluded, n=94
[14] = sub-group C: schizophrenia diagnoses only, secondary causes excluded, n=87
[15] = sub-group D: smokers only, secondary causes excluded, n=57
[16] = outpatients on clozapine at least five years (Lozano et al., 2016)
[17] = six weeks clozapine treatment (Hinze-Selch et al., 1998)

In the case of `CN1CCN(C2=Nc3cc(Cl)ccc3Nc3ccccc32)CC1` [Clozapine, clozapine], the “% of patients with Serum IgM <0.3 g/L” value ([1]; human, in vivo) was 12.3%, the “concentrations/distribution of IgG, IgA and IgM vs clozapine-naive control group” value ([1]; human, in vivo) was “significantly reduced concentrations; also recorded: leftward shift” and the “association of longer duration of therapy with serum IgG” value ([1]; p 0.014, not observed with alternative antipsychotic drugs, FIG. 2) was “lower serum IgG levels”. The “% of patients with Serum IgA <0.5 g/L (Reference range 0.8-4.0 g/L)” value (shortened to “% of patients with Serum IgA <0.5 g/L”) [1, 11] was 1.6%, the “% of patients with Serum IgA <0.6 g/L” value [1, 11] was 2.4% and the “% of patients with Serum IgA <0.7 g/L” value [1, 11] was 6.5%. The “% of patients with Serum IgA <0.8 g/L (below reference range)” value (“% of patients with Serum IgA <0.8 g/L” below) [1, 11] was 13.0%, the “% of patients with Serum IgG <3 g/L (Reference range 6-16 g/L)” value (shortened to “% of patients with Serum IgG <3 g/L”) [1, 11] was 0.8% and the “% of patients with Serum IgG <4 g/L” value [1, 11] was 1.6%. The “% of patients with Serum IgG <5 g/L” value [1, 11] was 3.3%, the “% of patients with Serum IgG <6 g/L (below reference range)” value (shortened to “% of patients with Serum IgG <6 g/L”) [1, 11] was 9.8% and the “% of patients with Serum IgM <0.2 g/L (Reference range 0.5-1.9 g/L)” value (shortened to “% of patients with Serum IgM <0.2 g/L”) [1, 11] was 8.1%. The “% of patients with Serum IgM <0.3 g/L” value [1, 11] was 16.3%, the “% of patients with Serum IgM <0.4 g/L” value [1, 11] was 29.3% and the “% of patients with Serum IgM <0.5 g/L (below reference range)” value (“% of patients with Serum IgM <0.5 g/L” below) [1, 11] was 38.2%. For the same compound, the “% of patients with Serum IgA <0.8 g/L” value [1, 12] was 13.0% and 13.1%, the “% of patients with Serum IgG <6 g/L” value [1, 12] was 9.8% and the “% of patients with Serum IgM <0.5 g/L” value [1, 12] was 38.2%. The “% of patients with Serum IgA <0.5 g/L” value [1, 13] was 2.1%, the “% of patients with Serum IgA <0.6 g/L” value [1, 13] was 2.1% and the “% of patients with Serum IgA <0.7 g/L” value [1, 13] was 6.4%. The “% of patients with Serum IgA <0.8 g/L” value [1, 13] was 13.8%, the “% of patients with Serum IgG <3 g/L” value [1, 13] was 1.1% and the “% of patients with Serum IgG <4 g/L” value [1, 13] was 1.1%. The “% of patients with Serum IgG <5 g/L” value [1, 13] was 2.1%, the “% of patients with Serum IgG <6 g/L” value [1, 13] was 8.4% and the “% of patients with Serum IgM <0.2 g/L” value [1, 13] was 5.3%. The “% of patients with Serum IgM <0.3 g/L” value [1, 13] was 12.8%, the “% of patients with Serum IgM <0.4 g/L” value [1, 13] was 26.6% and the “% of patients with Serum IgM <0.5 g/L” value [1, 13] was 34.0%. For the same compound, the “% of patients with Serum IgA <0.5 g/L” value [1, 14] was 2.3%, the “% of patients with Serum IgA <0.6 g/L” value [1, 14] was 3.5% and the “% of patients with Serum IgA <0.7 g/L” value [1, 14] was 6.9%. For the same compound, the “% of patients with Serum IgA <0.8 g/L” value [1, 14] was 14.9%, the “% of patients with Serum IgG <3 g/L” value [1, 14] was 1.2% and the “% of patients with Serum IgG <4 g/L” value [1, 14] was 1.2%. The “% of patients with Serum IgG <5 g/L” value [1, 14] was 2.3%, the “% of patients with Serum IgG <6 g/L” value [1, 14] was 9.2% and the “% of patients with Serum IgM <0.2 g/L” value [1, 14] was 5.8%. For the same compound, the “% of patients with Serum IgM <0.3 g/L” value [1, 14] was 12.6%, the “% of patients with Serum IgM <0.4 g/L” value [1, 14] was 27.6% and the “% of patients with Serum IgM <0.5 g/L” value [1, 14] was 35.6%. The “% of patients with Serum IgA <0.5 g/L” value [1, 15] was 3.5%, the “% of patients with Serum IgA <0.6 g/L” value [1, 15] was 3.5% and the “% of patients with Serum IgA <0.7 g/L” value [1, 15] was 3.5%. The “% of patients with Serum IgA <0.8 g/L” value [1, 15] was 10.5%, the “% of patients with Serum IgG <3 g/L” value [1, 15] was 1.8% and the “% of patients with Serum IgG <4 g/L” value [1, 15] was 1.8%. For the same compound, the “% of patients with Serum IgG <5 g/L” value [1, 15] was 1.8%, the “% of patients with Serum IgG <6 g/L” value [1, 15] was 8.8% and the “% of patients with Serum IgM <0.2 g/L” value [1, 15] was 1.78%. For the same compound, the “% of patients with Serum IgM <0.4 g/L” value [1, 15] was 26.3%, the “% of patients with Serum IgM <0.5 g/L” value [1, 15] was 33.3% and the “levels of circulating total IgG, IgA and IgM vs clozapine naive control” value ([2]; FIG. 6A-C) was “Significantly reduced levels”. For the same compound, the “IgG antibodies against pneumococcus vs control” value ([2]; FIG. 7) was “trend to lower”, the “overall CD19+ B cell numbers vs control” value ([3]; FIG. 8A-B) was “not significantly different” and the “naive (CD19+CD27-) B cells as a proportion of total CD19+ B cells” value ([3]; FIG. 9A-C) was “Small increase”. The “overall memory B cell pool” value ([3]; FIG. 10A-C) was “without perturbation”, the “IgM hi IgD lo memory B cell subpopulation” value ([3]; FIG. 12A-C) was “without perturbation” and the “circulating levels of marginal zone B cells” value ([3]; FIG. 14A-C) was “No significant difference”. For the same compound, the “class-switched memory B cells (CD27+ IgM- IgD- as % B)” value ([3]; P=0.06 vs control, FIG. 11A-C) was “Strong trends to a specific reduction”, the levels of plasmablasts ([3]; P=0.07 vs control clozapine naive, FIG. 15A-C) was “Strong trends to reduction” and the “swelling of the first affected paw” value ([4]; 10 mg/kg from day 1, FIG. 27) was “reduced swelling of the first affected paw”. The “onset of arthritis post-immunisation” value ([4]; 5 or 10 mg/kg IP daily from day 1 or day 15, FIG. 25, 26) was “significantly effective”, the “incidence of CIA” value ([4]; FIG. 26) was “reduces the incidence” and the “onset of arthritis, treatment from day 1” value ([4]; both doses (5, 10 mg/kg) from day 1, FIG. 25, 26) was “extremely effective”. The overall clinical score ([4]; both doses, administered from day 1, FIG. 27) was “reduced overall clinical score”, the “total number of affected paws compared to vehicle control” value ([4]; significant with dosing at D1, FIG. 28) was “reduced the total number of affected paws” and the “proportion of B220+ B cells in spleen” value ([5]; 10 mg/kg from day 1, FIG. 29) was “significantly reduced”. The “proportion of plasma cells in spleen” value ([5]; 10 mg/kg given on day 1, FIG. 30) was “significant reduction”, the “plasma cell numbers in lymph node” value ([5]; FIG. 30) was “no significant effect” and the “level of GL7 expression on follicular B cells in lymph node” value ([5]; all clozapine treatment groups vs vehicle, FIG. 32) was “significantly decreased”. For the same compound, the “percentage of B220+ B cells in lymph nodes” value ([5]; all doses and time points (5 or 10 mg/kg from day 1 or day 15), FIG. 29) was “significantly lower percentage”, the “lymph node follicular B cells (B220+IgD-Fas+GL7hi)” value ([5]; all doses/both time points, FIG. 31) was “Strikingly significant reductions” and the “serum anti-type II collagen IgG1 reduction” value ([6]; 10 mg/kg from day 15) was “reaching statistical significance”. The “serum anti-type II collagen IgG2a” value ([6]; 5 or 10 mg/kg from day 1 or day 15, single time point) was “no significant impact”, the “serum anti-type II collagen IgG1” value ([6]; across all doses tested) was “nominal reductions” and the “proportions of CD4+PD1+CXCR5+ T follicular helper cells in lymph node or spleen” value ([7]; 5 or 10 mg/kg from day 1 or day 15, FIG. 34) was “did not significantly affect”. For the same compound, the “expression of PD-1 (MFI) in lymph node T follicular helper cells” value ([7]; all doses and time points, FIG. 35) was “Reduced expression”, the “CXCR5 expression (MFI) on T follicular helper cells” value ([7]; dosed from day 1, lymph node and spleen, FIG. 36) was “significant reductions” and the “expression of CCR7 on germinal centre resident T follicular helper cells” value ([7]; lymph node and spleen, FIG. 37) was “reduction in expression”. The “admitted to hospital with infection” value (clozapine group (vs 0.06 controls)) was 0.12 per patient year, the “Admission frequency in 12-month period, infection-related: admissions” value (clozapine-treated patients) was 15 and the “Admission frequency in 12-month period, infection-related: patients” value (clozapine-treated patients) was 10 patients. The “marginal zone B cell numbers vs healthy control” value ([8]; FIG. 3B) was “no significant difference”, the “total B cell numbers vs CVID and healthy controls” value ([8]; FIG. 3B) was “similar” and the “CSMB (6.5-29.1%), individual referred patients” value ([8]; class switched memory B cells as % of CD19+ cells, one line per patient, listed as clozapine) was 1.58%. For the same compound, the “overall lymphopenia / B cell lymphopenia” value ([8]; human, in vivo) was “no severe overall lymphopenia or B cell lymphopenia”, the “CSMB after stopping clozapine” value [8] was “CSMB rose to 2.77%” and the “CSMB after stopping clozapine” value ([8]; listed as clozapine) was 2.77%. For the same compound, the “mean percentage of CSMB, referred patients” value ([8]; reference range 6.5-29.1%, p<0.0001 vs healthy controls, FIG. 3A) was 1.87%, the “IgA, IgG, absolute neutrophil count and white blood cell count vs control group” value [9, 16] was “no differences were found” and the “mean plasma levels of IgM vs control group” value [9, 16] was “overall decrease”. The “IgA or IgM concentrations” value [9, 17] was “no significant effect”, the “serum concentrations of IgG” value [9, 17] was “significant increases” and the LD50 [10] was 200 mg/kg.
